Results taken from ChEMBL document CHEMBL5303573, “Mapping human microbiome drug metabolism by gut bacteria and their genes” (Nature, 2019).

Target: T1, Nitroreductase-like protein (Bacteroides thetaiotaomicron, UniProt Q8AB93)
T1 sequence (Q8AB93 whole entry): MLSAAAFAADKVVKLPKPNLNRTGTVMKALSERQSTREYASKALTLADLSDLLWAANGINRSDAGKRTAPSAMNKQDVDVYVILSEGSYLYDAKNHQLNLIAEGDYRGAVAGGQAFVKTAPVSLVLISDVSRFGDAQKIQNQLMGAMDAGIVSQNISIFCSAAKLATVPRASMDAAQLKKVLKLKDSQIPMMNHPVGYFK
Assay: (§1) The drug is tested on Bacteroides thetaiotaomicron strain: VPI-5482 for biotransformation. The drug concentrations were measured before and after a 12-h incubation by liquid-chromatography-coupled mass spectrometry (LC–MS)
Assay type: ADME
Design: dose 2 uM
Conditions: 2 µM

Bacterial Biotransformation, Compound NOT metabolized:
C#C[C@]1(O)CC[C@H]2[C@@H]3CCC4=CC(=O)CC[C@@H]4[C@H]3CC[C@@]21CC [LEVONORGESTREL]
CC(=O)OCC(CCn1cnc2cnc(N)nc21)COC(C)=O [FAMCICLOVIR]
C#C[C@]1(OC(C)=O)CC[C@H]2[C@@H]3CCC4=CC(=O)CC[C@@H]4[C@H]3CC[C@@]21C [NORETHINDRONE ACETATE]
COc1ccc([C@@H]2Sc3ccccc3N(CCN(C)C)C(=O)[C@@H]2OC(C)=O)cc1 [DILTIAZEM]
CC(=O)OCC(=O)[C@@]1(OC(C)=O)[C@@H](C)C[C@H]2[C@@H]3C[C@H](F)C4=CC(=O)C=C[C@]4(C)[C@@]3(F)[C@@H](O)C[C@@]21C [DIFLORASONE DIACETATE]

Target: T2, Sialic acid-specific acetylesterase (Bacteroides thetaiotaomicron, UniProt Q8A331)
T2 sequence (Q8A331 whole entry): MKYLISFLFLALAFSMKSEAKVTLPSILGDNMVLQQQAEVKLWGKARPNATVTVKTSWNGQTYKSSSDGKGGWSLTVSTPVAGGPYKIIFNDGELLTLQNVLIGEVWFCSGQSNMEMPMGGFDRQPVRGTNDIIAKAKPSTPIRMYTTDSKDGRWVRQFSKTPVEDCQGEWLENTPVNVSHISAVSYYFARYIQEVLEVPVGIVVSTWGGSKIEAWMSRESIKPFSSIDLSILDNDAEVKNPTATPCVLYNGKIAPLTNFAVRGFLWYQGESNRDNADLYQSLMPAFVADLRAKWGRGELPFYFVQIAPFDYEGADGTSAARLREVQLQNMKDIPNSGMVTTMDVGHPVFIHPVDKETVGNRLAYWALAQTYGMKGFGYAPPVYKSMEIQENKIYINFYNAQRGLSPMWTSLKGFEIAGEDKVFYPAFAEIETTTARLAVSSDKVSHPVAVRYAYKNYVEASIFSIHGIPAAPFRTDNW
Assay: as §1
Assay type: ADME
Design: dose 2 uM
Conditions: 2 µM

Bacterial Biotransformation, Compound NOT metabolized:
C#C[C@]1(O)CC[C@H]2[C@@H]3CCC4=CC(=O)CC[C@@H]4[C@H]3CC[C@@]21CC [LEVONORGESTREL]
C#C[C@]1(OC(C)=O)CC[C@H]2[C@@H]3CCC4=CC(=O)CC[C@@H]4[C@H]3CC[C@@]21C [NORETHINDRONE ACETATE]
COc1ccc([C@@H]2Sc3ccccc3N(CCN(C)C)C(=O)[C@@H]2OC(C)=O)cc1 [DILTIAZEM]

Bacterial Biotransformation, Compound metabolized:
CC(=O)OCC(CCn1cnc2cnc(N)nc21)COC(C)=O [FAMCICLOVIR]

Target: T3, Lipoprotein (Bacteroides thetaiotaomicron, UniProt Q8A343)
T3 sequence (Q8A343 whole entry): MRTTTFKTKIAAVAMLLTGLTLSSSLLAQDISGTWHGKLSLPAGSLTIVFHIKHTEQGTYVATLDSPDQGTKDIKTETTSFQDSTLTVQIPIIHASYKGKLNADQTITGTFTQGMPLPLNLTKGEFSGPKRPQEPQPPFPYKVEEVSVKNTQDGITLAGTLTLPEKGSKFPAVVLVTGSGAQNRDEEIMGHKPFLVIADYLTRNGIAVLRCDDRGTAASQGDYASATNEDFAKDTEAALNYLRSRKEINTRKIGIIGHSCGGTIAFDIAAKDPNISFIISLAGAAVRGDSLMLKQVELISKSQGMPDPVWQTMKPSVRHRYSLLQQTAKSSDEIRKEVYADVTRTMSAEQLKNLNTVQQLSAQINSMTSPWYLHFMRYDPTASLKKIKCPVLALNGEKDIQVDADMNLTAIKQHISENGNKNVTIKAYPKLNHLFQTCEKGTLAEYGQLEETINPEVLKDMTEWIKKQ
Assay: as §1
Assay type: ADME
Design: dose 2 uM
Conditions: 2 µM

Bacterial Biotransformation, Compound NOT metabolized:
C#C[C@]1(O)CC[C@H]2[C@@H]3CCC4=CC(=O)CC[C@@H]4[C@H]3CC[C@@]21CC [LEVONORGESTREL]
CC(=O)OCC(CCn1cnc2cnc(N)nc21)COC(C)=O [FAMCICLOVIR]
C#C[C@]1(OC(C)=O)CC[C@H]2[C@@H]3CCC4=CC(=O)CC[C@@H]4[C@H]3CC[C@@]21C [NORETHINDRONE ACETATE]
COc1ccc([C@@H]2Sc3ccccc3N(CCN(C)C)C(=O)[C@@H]2OC(C)=O)cc1 [DILTIAZEM]
CC(=O)OCC(=O)[C@@]1(OC(C)=O)[C@@H](C)C[C@H]2[C@@H]3C[C@H](F)C4=CC(=O)C=C[C@]4(C)[C@@]3(F)[C@@H](O)C[C@@]21C [DIFLORASONE DIACETATE]

Target: T4, Sialic acid-specific 9-O-acetylesterase (Bacteroides thetaiotaomicron, UniProt Q8A0D0)
T4 sequence (Q8A0D0 whole entry): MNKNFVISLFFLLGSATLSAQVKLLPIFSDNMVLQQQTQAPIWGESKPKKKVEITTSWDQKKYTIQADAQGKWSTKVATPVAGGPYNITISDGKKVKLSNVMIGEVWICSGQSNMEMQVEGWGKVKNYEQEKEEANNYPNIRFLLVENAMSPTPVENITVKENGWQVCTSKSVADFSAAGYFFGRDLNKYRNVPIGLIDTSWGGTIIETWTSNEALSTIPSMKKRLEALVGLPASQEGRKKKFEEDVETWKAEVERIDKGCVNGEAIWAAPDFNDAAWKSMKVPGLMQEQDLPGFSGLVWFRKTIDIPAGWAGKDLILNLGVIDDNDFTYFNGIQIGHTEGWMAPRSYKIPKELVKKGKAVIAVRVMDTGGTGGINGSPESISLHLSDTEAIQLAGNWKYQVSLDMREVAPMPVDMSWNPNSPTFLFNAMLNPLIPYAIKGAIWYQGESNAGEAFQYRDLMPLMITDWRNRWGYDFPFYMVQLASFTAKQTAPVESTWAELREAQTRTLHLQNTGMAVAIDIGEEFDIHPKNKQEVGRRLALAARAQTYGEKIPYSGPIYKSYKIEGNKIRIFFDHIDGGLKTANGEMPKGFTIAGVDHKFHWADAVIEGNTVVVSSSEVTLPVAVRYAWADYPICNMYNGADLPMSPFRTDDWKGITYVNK
Assay: as §1
Assay type: ADME
Design: dose 2 uM
Conditions: 2 µM

Bacterial Biotransformation, Compound NOT metabolized:
C#C[C@]1(O)CC[C@H]2[C@@H]3CCC4=CC(=O)CC[C@@H]4[C@H]3CC[C@@]21CC [LEVONORGESTREL]
C#C[C@]1(OC(C)=O)CC[C@H]2[C@@H]3CCC4=CC(=O)CC[C@@H]4[C@H]3CC[C@@]21C [NORETHINDRONE ACETATE]
COc1ccc([C@@H]2Sc3ccccc3N(CCN(C)C)C(=O)[C@@H]2OC(C)=O)cc1 [DILTIAZEM]

Bacterial Biotransformation, Compound metabolized:
CC(=O)OCC(CCn1cnc2cnc(N)nc21)COC(C)=O [FAMCICLOVIR]

Target: T5, Acetyl esterase (Acetylxylosidase) (Bacteroides thetaiotaomicron, UniProt Q8ABF8)
T5 sequence (Q8ABF8 whole entry): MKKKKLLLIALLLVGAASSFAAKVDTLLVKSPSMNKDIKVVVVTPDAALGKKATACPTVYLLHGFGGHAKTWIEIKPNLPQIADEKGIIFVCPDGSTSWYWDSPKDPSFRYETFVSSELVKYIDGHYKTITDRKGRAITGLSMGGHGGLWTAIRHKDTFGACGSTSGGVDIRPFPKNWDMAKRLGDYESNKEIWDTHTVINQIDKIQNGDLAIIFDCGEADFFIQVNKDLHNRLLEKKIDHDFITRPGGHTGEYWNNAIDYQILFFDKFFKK
Assay: as §1
Assay type: ADME
Design: dose 2 uM
Conditions: 2 µM

Bacterial Biotransformation, Compound metabolized:
CC(=O)OCC(CCn1cnc2cnc(N)nc21)COC(C)=O [FAMCICLOVIR]

Bacterial Biotransformation, Compound NOT metabolized:
C#C[C@]1(O)CC[C@H]2[C@@H]3CCC4=CC(=O)CC[C@@H]4[C@H]3CC[C@@]21CC [LEVONORGESTREL]
C#C[C@]1(OC(C)=O)CC[C@H]2[C@@H]3CCC4=CC(=O)CC[C@@H]4[C@H]3CC[C@@]21C [NORETHINDRONE ACETATE]
COc1ccc([C@@H]2Sc3ccccc3N(CCN(C)C)C(=O)[C@@H]2OC(C)=O)cc1 [DILTIAZEM]
CC(=O)OCC(=O)[C@@]1(OC(C)=O)[C@@H](C)C[C@H]2[C@@H]3C[C@H](F)C4=CC(=O)C=C[C@]4(C)[C@@]3(F)[C@@H](O)C[C@@]21C [DIFLORASONE DIACETATE]

Target: T6, Regulatory protein (Bacteroides thetaiotaomicron, UniProt Q8A576)
T6 sequence (Q8A576 whole entry): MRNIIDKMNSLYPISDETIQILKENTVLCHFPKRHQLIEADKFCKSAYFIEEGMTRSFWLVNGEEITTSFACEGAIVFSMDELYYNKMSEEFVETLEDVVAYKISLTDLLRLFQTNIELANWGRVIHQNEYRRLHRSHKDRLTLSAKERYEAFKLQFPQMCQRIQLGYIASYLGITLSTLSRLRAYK
Assay: as §1
Assay type: ADME
Design: dose 2 uM
Conditions: 2 µM

Bacterial Biotransformation, Compound NOT metabolized:
C#C[C@]1(O)CC[C@H]2[C@@H]3CCC4=CC(=O)CC[C@@H]4[C@H]3CC[C@@]21CC [LEVONORGESTREL]
CC(=O)OCC(CCn1cnc2cnc(N)nc21)COC(C)=O [FAMCICLOVIR]
C#C[C@]1(OC(C)=O)CC[C@H]2[C@@H]3CCC4=CC(=O)CC[C@@H]4[C@H]3CC[C@@]21C [NORETHINDRONE ACETATE]
COc1ccc([C@@H]2Sc3ccccc3N(CCN(C)C)C(=O)[C@@H]2OC(C)=O)cc1 [DILTIAZEM]
CC(=O)OCC(=O)[C@@]1(OC(C)=O)[C@@H](C)C[C@H]2[C@@H]3C[C@H](F)C4=CC(=O)C=C[C@]4(C)[C@@]3(F)[C@@H](O)C[C@@]21C [DIFLORASONE DIACETATE]

Target: T7, Xylanase (Bacteroides thetaiotaomicron, UniProt Q8A8H5)
T7 sequence (Q8A8H5 whole entry): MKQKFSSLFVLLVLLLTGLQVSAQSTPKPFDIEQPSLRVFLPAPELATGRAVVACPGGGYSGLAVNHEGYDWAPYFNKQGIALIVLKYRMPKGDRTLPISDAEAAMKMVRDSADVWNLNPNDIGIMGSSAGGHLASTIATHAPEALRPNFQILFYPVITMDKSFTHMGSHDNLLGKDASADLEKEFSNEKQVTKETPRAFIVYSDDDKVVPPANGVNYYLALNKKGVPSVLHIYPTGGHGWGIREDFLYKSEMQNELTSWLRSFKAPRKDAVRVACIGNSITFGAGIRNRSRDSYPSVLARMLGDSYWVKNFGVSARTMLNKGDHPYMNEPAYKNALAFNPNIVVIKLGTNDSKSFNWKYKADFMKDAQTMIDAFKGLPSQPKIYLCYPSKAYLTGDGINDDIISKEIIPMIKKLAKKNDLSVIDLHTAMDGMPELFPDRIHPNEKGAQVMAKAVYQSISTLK
Assay: as §1
Assay type: ADME
Design: dose 2 uM
Conditions: 2 µM

Bacterial Biotransformation, Compound NOT metabolized:
C#C[C@]1(O)CC[C@H]2[C@@H]3CCC4=CC(=O)CC[C@@H]4[C@H]3CC[C@@]21CC [LEVONORGESTREL]
CC(=O)OCC(CCn1cnc2cnc(N)nc21)COC(C)=O [FAMCICLOVIR]
C#C[C@]1(OC(C)=O)CC[C@H]2[C@@H]3CCC4=CC(=O)CC[C@@H]4[C@H]3CC[C@@]21C [NORETHINDRONE ACETATE]
COc1ccc([C@@H]2Sc3ccccc3N(CCN(C)C)C(=O)[C@@H]2OC(C)=O)cc1 [DILTIAZEM]
CC(=O)OCC(=O)[C@@]1(OC(C)=O)[C@@H](C)C[C@H]2[C@@H]3C[C@H](F)C4=CC(=O)C=C[C@]4(C)[C@@]3(F)[C@@H](O)C[C@@]21C [DIFLORASONE DIACETATE]
